Structures can show the parent of a compound that is named as a salt.
What was measured:
physchem = assay type: physicochemical
Method: The salts of the present invention are particularly stable even at substantially higher temperatures than the room temperature: an analysis of their thermal stability versus time has, in fact, shown an unlimited stability of these compounds, when maintained in solid phase at 45° C. However, at 75° C., differentiated behaviors of the various salts prepared are observed with respect to one another.

[1] = Hygroscopicity of the lyophilized or dried solid; assay type: physicochemical
[2] = Source text: The liquors are removed by simple decantation and the precipitate is washed twice with 10 l of distilled H2 O while keeping the system under strong stirring.
[3] = assay type: physicochemical
[4] = test system: transmethylation reactions; settings: cited from earlier work
[5] = test system: ethanolamianephosphate cytidyltransferase; settings: cited from earlier work
[6] = test system: osteoarthritis, Parkinson's disease, disorder of sleep, depression, atherosclerosis; settings: cited from earlier work
cholestasis = settings: in vivo; cited from earlier work
pain from myotasis = settings: in vivo; cited from earlier work
[7] = test system: methylene tetrahydrofolic reductase; settings: cited from earlier work
edema = settings: carrageenin and white-of-egg acute edema; adjuvant arthritis; cited from earlier work
steatosis = settings: diet; alcohol, carbon tetrachloride, bromobenzene; cited from earlier work
H ribonuclease = settings: cited from earlier work

SMILES: C[S+](CC[C@H](N)C(=O)O)C[C@H]1O[C@@H](n2cnc3c(N)ncnc32)[C@H](O)[C@@H]1O (stereo partly drawn) [Example 1, salt of SAM with the polyparastyrene sulfonate]
- stability of the salt at 45° C. (physchem): unlimited
- thermal stability at 75° C. versus SAM chloride and the double salt SAM^+.HSO4^-.H2 SO4.2CH3 C6 H4 SO3 H (physchem): higher stability

SMILES: C[S+](CC[C@H](N)C(=O)O)C[C@H]1O[C@@H](n2cnc3c(N)ncnc32)[C@H](O)[C@@H]1O (stereo partly drawn) [Example 2]
- hygroscopicity [1]: nonhygroscopic
- solubilisation time / rate at pH >4 relative to Example 1 [2]: increase in solubilisation times

SMILES: C[S+](CC[C@H](N)C(=O)O)C[C@H]1O[C@@H](n2cnc3c(N)ncnc32)[C@H](O)[C@@H]1O (stereo partly drawn) [Example 3]
- thermal stability at 75° C. versus SAM chloride and the double salt SAM^+.HSO4^-.H2 SO4.2CH3 C6 H4 SO3 H (physchem): higher stability
- hygroscopicity [1]: nonhygroscopic
- solubilisation time / rate at pH >4 relative to Example 1 [2]: slower rate of solubilization

SMILES: C[S+](CC[C@H](N)C(=O)O)C[C@H]1O[C@@H](n2cnc3c(N)ncnc32)[C@H](O)[C@@H]1O (stereo partly drawn) [Example 4]
- half-life time at 75° C. (physchem): more than one
- stability of the salt at 45° C. (physchem): unlimited
- thermal stability at 75° C. versus SAM chloride and the double salt SAM^+.HSO4^-.H2 SO4.2CH3 C6 H4 SO3 H (physchem): higher stability
- hygroscopicity [1]: nonhygroscopic
- residual acidity [3]: negligible
- solubilization at pH >4 [2]: solubilizes rapidly

SMILES: C[S+](CC[C@H](N)C(=O)O)C[C@H]1O[C@@H](n2cnc3c(N)ncnc32)[C@H](O)[C@@H]1O (stereo partly drawn) [Example 5]
- stability of the salt at 45° C. (physchem): unlimited
- thermal stability at 75° C. versus SAM chloride and the double salt SAM^+.HSO4^-.H2 SO4.2CH3 C6 H4 SO3 H (physchem): higher stability
- half-life (physchem; solid phase, half-life time at 75° C.): > 10 days
- hygroscopicity [1]: nonhygroscopic
- residual acidity [3]: negligible
- solubilization at pH 7 ([2]; pH 7): rapidly solubilized

SMILES: C[S+](CC[C@H](N)C(=O)O)C[C@H]1O[C@@H](n2cnc3c(N)ncnc32)[C@H](O)[C@@H]1O (stereo partly drawn) [Example 7]
- thermal stability at 75° C. versus SAM chloride and the double salt SAM^+.HSO4^-.H2 SO4.2CH3 C6 H4 SO3 H (physchem): higher stability

SMILES: C[S+](CC[C@H](N)C(=O)O)C[C@H]1O[C@@H](n2cnc3c(N)ncnc32)[C@H](O)[C@@H]1O (stereo partly drawn) [Example 9]
- stability of the salt at 45° C. (physchem): unlimited
- thermal stability at 75° C. versus SAM chloride and the double salt SAM^+.HSO4^-.H2 SO4.2CH3 C6 H4 SO3 H (physchem): higher stability
- hygroscopicity [1]: nonhygroscopic
- residual acidity [3]: negligible
- solubilization at pH 6 ([2]; pH 6): solubilizes rapidly

SMILES: Nc1ncnc2c1ncn2[C@@H]1O[C@H](CSCC[C@H](N)C(=O)O)[C@@H](O)[C@H]1O [SAH, S-adenosyl-homocysteine]
- inhibition of transmethylation reactions [4]: powerful inhibitor

SMILES: C[S@@+](CC[C@H](N)C(=O)O)C[C@H]1O[C@@H](n2cnc3c(N)ncnc32)[C@H](O)[C@@H]1O [SAM, 5'-[[(3S)-3-amino-3-carboxy-propyl]methyl-(S)-sulfone]-5'-deoxyadenosine]
- inhibition of ethanolaminephosphate cytidyltransferase [5]: inhibitor
- clinical effect: akinesia and rigidity ([6]; Parkinson's disease): IMPROVES AKINESIA
- effect on the action of levodopa ([6]; Parkinson's disease): ENHANCING
- clinical effect: psycho-affective sphere ([6]; atherosclerosis): IMPROVES
- effect on sleep ([6]; disorder of sleep mechanism or of waking-sleeping rhythm): SLEEP INDUCING
- antidepressant effect ([6]; in vivo): ANTIDEPRESSANT
- clinical effect: (depressive) symptomatology ([6]; in vivo): REDUCES OR RESOLVES
- clinical effect: muscular spasms ([6]; osteoarthritis): improves
- bile fluidifying effect (cholestasis): BILE FLUIDIFYING
- analgesic effect (pain from myotasis): ANALGESIC
- inhibition of methylene tetrahydrofolic reductase [7]: inhibitor
- anti-inflammatory effect (edema): ANTI-INFLAMMATORY
- hepatoprotective effect (steatosis): HEPATOPROTECTIVE
- inhibition of H ribonuclease (H ribonuclease): inhibitor
- inactivation of H ribonuclease (H ribonuclease; from calf thymus gland): irreversible inactivation

SMILES: C[S+](CCCN)C[C@H]1O[C@@H](n2cnc3c(N)ncnc32)[C@H](O)[C@@H]1O (stereo partly drawn) [deca-SAM, S-adenosyl-(5')-3-methylthiopropylamine]
- inhibition of transmethylation reactions [4]: inhibitor
